Earlier results in patent publication US11021437B2, “Pharmaceutical formulation for sublingual or buccal delivery of epinephrine or a pro-drug thereof” (Iono Pharma, LLC, priority 2016, dated 2021).

Legend:
[1] = 0.01 mg/kg subcutaneously in the deltoid region
[2] = in vivo

Compound | time to maximum plasma epinephrine concentration [1] | delay before onset of seizure [2] | t1/2 hydrolysis in vitro | t1/2 oxidation in vitro
CNC[C@H](O)c1ccc(O)c(O)c1 [Epinephrine] | ≤ 34 ± 14 min |  |  | 
CNCC(O)c1ccc(OC(=O)C(C)(C)C)c(OC(=O)C(C)(C)C)c1 (stereo not shown) [Structure 7D, 4-(1-hydroxy-2-(methylamino)ethyl)-1,2-phenylene bis(2,2-dimethylpropanoate)] |  | 8 to 10 min | 700 days | 300 days
